These results are taken from ChEMBL document CHEMBL1201862, “PubChem BioAssay data set” (2004).

Test systems include EKVX; NCI-H23; COLO 205; Malme-3M; SN12C; SK-MEL-2; UACC-257; SK-OV-3; T47D; OVCAR-3; CAKI-1; HCT-116; SNB-75; LOX IMVI; ACHN; OVCAR-4; 786-0; UO-31; SR; BT-549.
Common to all, as to test: NCI-60 cell line screen, 48 h

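96-well plates; 48 h exposure; 5 concentrations. Endpoints by linear interpolation between flanking doses. Not reached: highest tested concentration assigned. The concentration for 50% growth inhibition is given as GI50.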 Activity calls are given as the source filed them. Cut-off read from the data, not from the text of the source: active = GI50 up to about 1.1 µM and inactive = higher. Bounds are passed on as bounds.

As to `O=C(O)c1c(-c2c3ccc(=O)cc-3oc3cc(O)ccc23)cc2ccccc2c1-c1ccccc1`, the GI50 in the assay with EKVX, with NCI-H23, in the assay with COLO 205, in the assay on Malme-3M, with SN12C and in the assay on SK-MEL-2 was > 100 µM (inactive) in each case. Besides, the GI50 in the assay on UACC-257 was > 100 µM (inactive); with SK-OV-3 it was > 100 µM (inactive); with T47D it was > 93.1 µM (inactive); with OVCAR-3, > 100 µM (inactive); with CAKI-1 it was > 100 µM (inactive); with HCT-116, > 100 µM (inactive). Also, the GI50 with SNB-75 is 41.5 µM (inactive); in the assay on LOX IMVI, > 100 µM (inactive); with ACHN it was > 100 µM (inactive); with OVCAR-4, > 100 µM (inactive); in the assay on 786-0, > 100 µM (inactive); with UO-31 it was > 100 µM (inactive). In addition, the GI50 in the assay with SR and in the assay with BT-549 was > 100 µM (inactive) throughout.

Regarding `CCN(CC)CC(O)CNc1ccc(NCC(O)CCl)c2c1C(=O)c1ccccc1C2=O` (stereo not given), the GI50 in the assay on EKVX was 14.9 µM (inactive); with NCI-H23 it was 6.67 µM (inactive); in the assay with COLO 205 it was 6.47 µM (inactive); in the assay with Malme-3M, 13.4 µM (inactive); with SN12C it was 4.95 µM (inactive); in the assay on SK-MEL-2 it was 12.2 µM (inactive). The GI50 was 6.04 µM (inactive) in the assay on UACC-257; 18.9 µM (inactive) in the assay with SK-OV-3; 21.1 µM (inactive) in the assay on T47D; 6.78 µM (inactive) in the assay with OVCAR-3; 8.67 µM (inactive) with CAKI-1; 1.67 µM (inactive) with HCT-116. Also, the GI50 in the assay with SNB-75 is 11 µM (inactive); with LOX IMVI it was 0.478 µM (active); with ACHN, 2.97 µM (inactive); with OVCAR-4 it was 6.52 µM (inactive); with 786-0, 2.98 µM (inactive); with UO-31, 4.59 µM (inactive). Moreover, the GI50 was 1.05 µM (active) in the assay on SR and 2.22 µM (inactive) with BT-549.

Consider `O=c1oc2ccc(Cl)cc2cc1C1=CSC2=NCCN12`, for which the GI50 with EKVX was 20.6 µM (inactive); in the assay with NCI-H23, 21.4 µM (inactive); with COLO 205, 20.9 µM (inactive); in the assay on Malme-3M, 31.1 µM (inactive); in the assay on SN12C, 17.4 µM (inactive); in the assay with SK-MEL-2 it was 23.3 µM (inactive). Further, the GI50 with UACC-257 is 37.7 µM (inactive); with SK-OV-3 it was 38.1 µM (inactive); in the assay on T47D it was 25.3 µM (inactive); in the assay with OVCAR-3 it was 18.4 µM (inactive); with CAKI-1, 44.5 µM (inactive); in the assay on HCT-116, 17.6 µM (inactive). For the same compound, the GI50 in the assay with SNB-75 is 44.5 µM (inactive); in the assay with LOX IMVI, 18.9 µM (inactive); in the assay with ACHN, 37.7 µM (inactive); with OVCAR-4, 23.6 µM (inactive); in the assay on 786-0, 18.4 µM (inactive); in the assay with UO-31, 20.7 µM (inactive). Moreover, the GI50 is 17.1 µM (inactive) in the assay on SR and 19.7 µM (inactive) in the assay on BT-549.

Consider `COC1(OC)C2(Cl)C(Cl)=C(Cl)C1(Cl)C1c3ccc(C(C)=O)c4cccc(c34)C12` (stereo not given), for which the GI50 is 41.6 µM (inactive) in the assay with EKVX; 7.16 µM (inactive) in the assay on NCI-H23; 12.8 µM (inactive) in the assay with COLO 205; 12.3 µM (inactive) in the assay on Malme-3M; 10.6 µM (inactive) with SN12C; 17.3 µM (inactive) in the assay with SK-MEL-2. Further, the GI50 with UACC-257 was 25.6 µM (inactive); in the assay with SK-OV-3 it was 52.1 µM (inactive); with T47D, 20.8 µM (inactive); with OVCAR-3, 26.3 µM (inactive); in the assay with CAKI-1 it was > 37.4 µM (inactive); in the assay with HCT-116 it was 6.47 µM (inactive). The GI50 in the assay on SNB-75 was 25.9 µM (inactive); in the assay with LOX IMVI, 22.5 µM (inactive); with ACHN, 19 µM (inactive); in the assay on OVCAR-4 it was 27.9 µM (inactive); in the assay on 786-0, 45.7 µM (inactive); in the assay on UO-31, 27.5 µM (inactive). The GI50 with SR was 13.7 µM (inactive); in the assay on BT-549, 47.6 µM (inactive).

`CCCCCCCCCCCCCCCCCc1cccc(OCOCCOC)c1C(=O)O`: the GI50 was 18.9 µM (inactive) with EKVX; 15.2 µM (inactive) in the assay with NCI-H23; 20.6 µM (inactive) in the assay on COLO 205; 10.2 µM (inactive) with Malme-3M; 22.4 µM (inactive) with SN12C; 19.5 µM (inactive) with SK-MEL-2. Moreover, the GI50 with UACC-257 is 20.5 µM (inactive); in the assay on SK-OV-3, 14 µM (inactive); in the assay on T47D, 16.5 µM (inactive); in the assay with OVCAR-3, 16.9 µM (inactive); in the assay on CAKI-1, 19.1 µM (inactive); with HCT-116, 19.4 µM (inactive). In addition, the GI50 is 15.5 µM (inactive) with SNB-75; 24.6 µM (inactive) in the assay on LOX IMVI; 19.1 µM (inactive) in the assay on ACHN; 19.5 µM (inactive) in the assay on OVCAR-4; 18.6 µM (inactive) in the assay with 786-0; 17 µM (inactive) in the assay on UO-31. The values for the GI50 in the assay on SR and in the assay on BT-549 were 25.4 µM (inactive) and 16.9 µM (inactive), respectively.

As for `C=CCC1(OC(C)=O)C2OC(=O)C1(O)OCC2O` (stereo not given), the GI50 in the assay with EKVX, with NCI-H23, with COLO 205, in the assay on Malme-3M, with SN12C and in the assay with SK-MEL-2 was > 100 µM (inactive) throughout. Also, the GI50 in the assay on UACC-257, with SK-OV-3, in the assay with T47D, in the assay with OVCAR-3, in the assay on CAKI-1 and in the assay on HCT-116 was > 100 µM (inactive) in each case. Also, the GI50 in the assay with SNB-75 is > 39.9 µM (inactive); in the assay on LOX IMVI, > 100 µM (inactive); in the assay on ACHN, > 100 µM (inactive); with OVCAR-4, > 100 µM (inactive); in the assay with 786-0, > 100 µM (inactive); with UO-31, > 100 µM (inactive). Moreover, the GI50 in the assay with SR and in the assay with BT-549 was > 100 µM (inactive) in each case.

Regarding `O=c1c(-c2nc3ccccc3c3ccccc3c2=O)nc2ccccc2c2ccccc12`, the GI50 was 50.1 µM (inactive) with EKVX; 40 µM (inactive) with NCI-H23; 38.4 µM (inactive) in the assay on COLO 205; 76.6 µM (inactive) in the assay with Malme-3M; 28.6 µM (inactive) in the assay on SN12C; 27.4 µM (inactive) with SK-MEL-2. Also, the GI50 with UACC-257 is 33.8 µM (inactive); in the assay with SK-OV-3, > 100 µM (inactive); in the assay on T47D it was 32.6 µM (inactive); with OVCAR-3, 28.4 µM (inactive); in the assay on CAKI-1, 38.9 µM (inactive); in the assay with HCT-116, 23.8 µM (inactive). Moreover, the GI50 in the assay with SNB-75 is 32.1 µM (inactive); in the assay with LOX IMVI, 32.1 µM (inactive); in the assay with ACHN, 36.1 µM (inactive); in the assay on OVCAR-4 it was 37.5 µM (inactive); in the assay with 786-0 it was 36 µM (inactive); in the assay on UO-31, 90.2 µM (inactive). The GI50 with SR is 21.9 µM (inactive); in the assay on BT-549, 47.1 µM (inactive).

For the compound `CCOC(=O)/C=C(\C(=O)OCC)n1ccc(=O)[nH]c1=O`, the GI50 in the assay on EKVX is 16 µM (inactive); in the assay on NCI-H23, 16.7 µM (inactive); in the assay on COLO 205, 2.67 µM (inactive); in the assay on Malme-3M, 10.2 µM (inactive); in the assay with SN12C, 11.8 µM (inactive); in the assay on SK-MEL-2, 23.4 µM (inactive). Moreover, the GI50 is 4.72 µM (inactive) in the assay on UACC-257; 22.4 µM (inactive) with SK-OV-3; 6.59 µM (inactive) in the assay on T47D; 13.2 µM (inactive) in the assay with OVCAR-3; 1.91 µM (inactive) in the assay with CAKI-1; 6.31 µM (inactive) in the assay on HCT-116. Besides, the GI50 was 17.1 µM (inactive) in the assay with SNB-75; 12.8 µM (inactive) with LOX IMVI; 9.35 µM (inactive) in the assay with ACHN; 19.1 µM (inactive) in the assay on OVCAR-4; 4.85 µM (inactive) with 786-0; 16.9 µM (inactive) in the assay on UO-31. The GI50 with SR is 10.4 µM (inactive); in the assay with BT-549, 16.7 µM (inactive).

Turning to `COc1ccc(N2C(=O)C3c4[nH]c5ccc([N+](=O)[O-])cc5c4C4CCC(C(C)(C)C)CC4C3C2=O)cc1` (stereo not given), the GI50 is 15.5 µM (inactive) in the assay with EKVX; 6.53 µM (inactive) with NCI-H23; 4.82 µM (inactive) in the assay on COLO 205; 28.4 µM (inactive) in the assay with Malme-3M; 15.2 µM (inactive) with SN12C; 26.1 µM (inactive) with SK-MEL-2. Also, the GI50 with UACC-257 was 35.2 µM (inactive); in the assay on SK-OV-3 it was > 100 µM (inactive); with T47D it was 27.5 µM (inactive); in the assay on OVCAR-3, 7.29 µM (inactive); in the assay on CAKI-1, 18.3 µM (inactive); in the assay with HCT-116, 3.24 µM (inactive). The GI50 in the assay on SNB-75 is 7.28 µM (inactive); with LOX IMVI, 15.2 µM (inactive); in the assay with ACHN, 9.75 µM (inactive); with OVCAR-4, 14.8 µM (inactive); in the assay with 786-0, 11.4 µM (inactive); with UO-31, 16.3 µM (inactive). The GI50 was 3.72 µM (inactive) in the assay with SR and 14.5 µM (inactive) in the assay on BT-549.

Take `COc1ccc(/C=C2\N=C(N3CCCC(CO)C3)NC2=O)cc1` (stereo not given): the GI50 in the assay on EKVX, with NCI-H23, in the assay with COLO 205, with Malme-3M, in the assay on SN12C and in the assay on SK-MEL-2 was > 100 µM (inactive) in each case. Further, the GI50 with UACC-257, with SK-OV-3, in the assay on T47D, in the assay with OVCAR-3, with CAKI-1 and with HCT-116 was > 100 µM (inactive) throughout. Besides, the GI50 in the assay with SNB-75, in the assay with LOX IMVI, in the assay with ACHN, in the assay with OVCAR-4, in the assay on 786-0 and in the assay on UO-31 was > 100 µM (inactive) each time. The GI50 with SR and with BT-549 was > 100 µM (inactive) throughout.
